Data: publication PMC5845353, “The selective cathepsin K inhibitor MIV-711 attenuates joint pathology in experimental animal models of osteoarthritis” (Journal of Translational Medicine, 2018)

Experiments:
[1] = system: Knee OA patients; details: once daily treatment for 6 months; cited from earlier work
[2] = system: CTX-I; experiment: Urinary CTX-I in dogs subjected to partial medial meniscectomy; assay type: in vivo; details: dog, 30 µmol/kg
Method: Dogs subjected to partial medial meniscectomy received either 30 µmol/kg MIV-711 (synthesized by Medivir and given as a suspension in 1% Methocel A4C; n = 15) or vehicle (1% Methocel A4C; n = 15) by orogastric gavage once daily in the morning. […] Dosing started the day before surgery and lasted through Day 28, the day before necropsy. Each dog was fasted for at least 12 h before dosing and food were returned approximately 4 h following test article administration.
Urine samples were collected from the animals 1 to 3 days before surgery and treatment (baseline sample), 4 to 7 days after the start of treatment (Day 7 sample) and 26 to 28 days after treatment (Day 28 sample). Dogs were housed in metabolic cages overnight during urine collection. […]
In rabbits, conventional CTX-I assays to assess bone resorption cannot be used due to species differences. Instead, urinary helical peptide (HP-1) concentrations were measured in rabbits using the MicroVue Helical Peptide kit (Ref: 8022) from Quidel (San Diego, CA) according to the instructions supplied by the manufacturer. In dogs, urinary levels of C-terminal telopeptide of collagen type I (CTX-I) were measured using a commercially available kit (Urine BETA CrossLaps ELISA, Ref: AC-05F1, IDS Nordic Bioscience Diagnostics A/S). […] In dogs, CTX-II levels were also measured in synovial fluid. […]

[3] = system: dogs subjected to partial medial meniscectomy; experiment: Dog partial medial meniscectomy study, gross macroscopic scoring; assay type: in vivo; details: MIV-711 30 µmol/kg
Description: The study design and animal usage were reviewed and approved by the IACUC at Preclinical Research Services (PCRS; Fort Collins, CO) for compliance with regulations before study initiation (IACUC Number 1021). Animal welfare, housing and research procedures for this study complied with the U.S. Department of Agriculture’s (USDA) Animal Welfare Act (9 CFR Parts 1, 2, and 3), the Guide for the Care and Use of Laboratory Animals, and PCRS Standard of Procedures. Thirty adult naïve female beagle dogs, with a weight of 7.5–11.3 kg and an age of approximately 6–8 months at study initiation, were used for this study. The dogs were acclimated for at least 7 days before study initiation.
At least 12 h before surgery, a fentanyl transdermal 2.5 mg patch was placed on the skin on the ventral aspect of the tail of each dog and secured into place with tape. The fentanyl patch delivered approximately 25 μg/h of analgesia for a total duration of 72–80 h. Dogs were also pre-medicated before surgery with glycopyrrolate (0.005–0.02 mg/kg), acepromazine (0.01–0.05 mg/kg) and morphine (0.5–1.0 mg/kg) injected subcutaneously. General anesthesia was induced using propofol (2–6 mg/kg) given intravenously; each dog was then intubated and maintained on isoflurane in oxygen (0.5–5%) administered to effect. The hair over the surgical site was clipped, and a preliminary aseptic prep of the area was done by alternating scrubs of chlorhexidine surgical scrub and sterile dry gauze sponges. A local anesthetic line block of lidocaine and bupivacaine (1.5 mg each) diluted in saline was administered at the incision site to provide local pre-emptive anesthesia. The limb was draped with a sterile fenestrated surgical drape. A small 2 cm medial parapatellar skin incision and a subsartorius capsular approach were made to expose the meniscus. For removal of the anterior one-half of the medial meniscus, the cranial meniscotibial ligament was incised, and the capsular attachments to the cranial pole of the meniscus were separated sharply with a scalpel under direct vision, sparing injury to the articular cartilage or the ACL. The medial meniscus was reflected medially with a hemostat. […] Animals were monitored closely throughout the recovery and post-operative period. […]
All animals were humanely euthanized on Day 29 to collect specimens for pathology. […] At study termination, the left (operated) knee was opened, disarticulated and the lesions on the medial tibia and femur measured, described and photographed. […] Lesions were classified as more severe or less severe depending on the intensity of India ink staining or perception of depth and areas for each calculated. Gross cartilage lesions were measured (length × width) and described as superficial, moderate, or deep. […]

[4] = system: plasma proteins; experiment: Fraction bound to plasma proteins, dog; assay type: in vitro ADME

For `C#C[C@@H]1CN(C(=O)[C@H](CC(C)C)NC(=O)c2ccc(-c3nc(N4CCN(C)CC4)sc3F)cc2)[C@@H]2C(=O)CO[C@H]12` [MIV-711], the “benefit on joint structure by MRI compared to placebo” value [1] is given as “significantly lower increases in bone area and cartilage thinning”, the “urinary CTX-I levels reduced by” value ([2]; Day 7, vs. baseline) is given as 78% and the “urinary CTX-I levels reduced by” value ([2]; Day 28, vs. baseline) is given as 86%. The “Macroscopic score, Calculated” value ([3]; Femur condyle) was 9.07 ± 4.78, the “Macroscopic score, Subjective” value ([3]; Femur condyle) was 1.13 ± 0.32 and the “Macroscopic score, Calculated” value ([3]; Tibia plateau) was 23.88 ± 3.17. For the same compound, the “Macroscopic score, Subjective” value ([3]; Tibia plateau) was 2.33 ± 0.21 and the “fraction bound to plasma proteins” value [4] was 90%.
